Laboratory results as given in patent US20100255001A1, “BLOCKERS OF SEROTONIN AND ITS RECEPTORS FOR THE TREATMENT OF HEPATITIS” (priority 2007, published 2010).

Key:
LCMV = type: in vivo, C57BL/6 mice; settings: 2×10^4 pfu LCMV, serotonin 5 mg/mouse/day
[1] = Serotonin treatment without infection, effect on liver

Structure (SMILES): NCCc1c[nH]c2ccc(O)cc12 [serotonin]
- time of maximum ALT level after infection (LCMV): 10 days
- replicating virus in liver (viral titers) (LCMV; eight days after infection, vehicle treated mice cleared LCMV by day 8): high levels of replicating virus
- ALT levels in the serum (LCMV; maximum at day 10 after infection): more than 1000 U/I
- effect on the liver without infection [1]: harmless to the liver
